Results on 12 sequences are retold here after patent publication US20250026789A1, “PEPTIDE HAVING INHIBITORY ACTIVITY AGAINST AMYLOID PRECURSOR PROTEIN AND USE THEREOF” ([…]., priority 2021, published 2025).

“Also recorded” adds a separate entry of the source.

Format in all cases: cell-based, human
In assay [1] the test system is amyloid precursor protein (APP). The assay is described as follows: APP expression by real-time qPCR in SH-SY5Y cells. The following applies: peptide 0.001, 0.01, 0.1, or 1 mM, 24 hours, vs control group without peptide. Here is the method:
(§1) In the present example, the effect of inhibiting the expression of APP by peptide treatment was confirmed. To this end, the prepared peptides were added at a concentration of 0.001, 0.01, 0.1, or 1 mM to SH-SY5Y, which is a human neural cell line obtained by isolating cells from the bone marrow of a human having neuroblastoma and proliferating them, and then the cells were cultured for 24 hours. Afterward, total RNA was extracted from the culture, cDNA was synthesized, and real-time quantitative polymerase chain reaction (qPCR) was performed using the APP primers shown in Table 2 below to measure the expression level of amyloid precursor protein (APP). Meanwhile, a group to which no peptide was added was used as a control group, and a group to which a random peptide was added (NRP1: AFMVDNEAIYDICR (SEQ ID NO: 9)) was used as a comparative group.
as §1, with “of amyloid precursor protein” for “of APP”, “real-time qPCR” for “real-time quantitative polymerase chain reaction (qPCR)”, “2 above” for “2 below”, “of APP.” for “of amyloid precursor protein (APP).”
Background: Quantitative PCR measures a nucleic acid by following its amplification.

Another assay has as its system ADAM 17. Description: ADAM 17 expression by real-time qPCR in SH-SY5Y cells. The following applies: peptide 0.001, 0.01, 0.1, or 1 mM, 24 hours, vs control group without peptide. As to the method:
(§2) ADAM 17 is an enzyme that removes APP from the cell membrane surface by cleaving it into a non-toxic fragment, sAPPa. Therefore, the increased expression of ADAM 17 may be used as an indicator of a therapeutic effect on a neurodegenerative disease. Specifically, the prepared peptides were added to SH-SY5Y, a neural cell line, at a concentration of 0.001, 0.01, 0.1, or 1 mM, and cultured at 37° C. and 5% CO2 for 24 hours. Afterward, total RNA was extracted from the culture, cDNA was synthesized, and real-time qPCR was performed using the ADAM 17 primers shown in Table 4 below to measure the expression level of […]. In addition, the prepared peptides were added to SH-SY5Y, a human neural cell line, at a concentration of 0.001, 0.01, 0.1, or 1mM, and cultured at 37° C. and 5% CO2 for 24 hours. Afterward, the expression of ADAM 17 protein from the culture and the expression of sAPPa, which was cleaved from APP by ADAM 17 and ADAM 10 and released, were confirmed through Western blotting using antibodies against each protein. In addition, the distribution of APP on the surface of a nerve cell membrane was analyzed using flow cytometric analysis. Meanwhile, a group to which no peptide was added was used as a control group.
The prepared peptides were added to SH-SY5Y, a neural cell line, at a concentration of 0.001, 0.01, 0.1, or 1 mM, and the cells were cultured at 37° C. and 5% CO2 for 24 hours. Afterward, total RNA was extracted from the culture, cDNA was synthesized, and real-time qPCR was performed using the ADAM 17 primers in Table 4 above to measure the expression level of ADAM 17. Meanwhile, a group to which no peptide was added was used as a control group.

The next assay relates to IL-10. Description: IL-10 expression by real-time qPCR in SH-SY5Y cells. The following applies: peptide 0.001, 0.01, 0.1, or 1 mM, 24 hours, vs control group without peptide. Here is the method: In the present example, to confirm the effect inhibiting a neuroinflammatory response by peptide treatment, which is one of the main causes of a neurodegenerative disease, the effect of increasing the expression of IL-10, one of the anti-inflammatory cytokines, was confirmed. Specifically, the prepared peptides were added to SH-SY5Y, a human neural cell line, at a concentration of 0.001, 0.01, 0.1, or 1 mM, and the cells were cultured at 37° C. and 5% CO2 for 24 hours. Afterward, total RNA was extracted from the culture, cDNA was synthesized, and real-time qPCR was performed using the IL-10 primers in Table 6 below to measure the expression level of IL-10. Meanwhile, a group to which no peptide was added was used as a control group.
In the present example to confirm the effect of inhibiting a neuroinflammatory response, which is one of the main causes of a neurodegenerative disease, by peptide treatment, the effect of increasing the expression of IL-10, one of the anti-inflammatory cytokines, was attempted. Specifically, the prepared peptide was added to SH-SY5Y, a human neural cell line, at a concentration of 0.001, 0.01, 0.1, or 1 mM, and the cells were cultured at 37° C. and 5% CO2 for 24 hours. Afterward, total RNA was extracted from the culture, cDNA was synthesized, and real-time qPCR was performed using the IL-10 primers in Table 6 above to measure the expression level of IL-10. Meanwhile, a group to which no peptide was added was used as a control group.

In assay [2] the test system is Brain Derived Neurotrophic Factor (BDNF). Description: BDNF expression by real-time qPCR in SH-SY5Y cells. The following applies: peptide 0.001, 0.01, 0.1, or 1 mM, 24 hours, vs control group without peptide. Here is the method:
In the present example, to confirm the effect of improving or treating a degenerative neurological disease through the regeneration of the nervous system by peptide treatment, the effect of increasing the expression of Brain Derived Neurotrophic Factor (BDNF) was examined. Specifically, the prepared peptides were added to SH-SY5Y, a human neural cell line, at a concentration of 0.001, 0.01, 0.1, or 1 mM, and the cells were cultured at 37° C. and 5% CO2 for 24 hours. Afterward, total RNA was extracted from the culture, cDNA was synthesized, and real-time qPCR was performed using the BDNF primers shown in Table 8 below to measure the expression level of BDNF. Meanwhile, a group to which no peptide was added was used as a control group.

The subject of assay [3] is IDE (insulin degrading enzyme). Description: IDE expression by real-time qPCR in SH-SY5Y cells. The following applies: peptide 0.01, 0.1, or 1 mM, 24 hours, vs control group without peptide. Here is the method:
IDE is an enzyme that degrades senile plaques produced and aggregated by beta-amyloid (Ab1-42, 1-40). Therefore, the increased expression of IDE may be used as an indicator of a therapeutic effect of a neurodegenerative disease. Specifically, the prepared peptides were added to SH-SY5Y, a human neural cell line, at a concentration of 0.01, 0.1, or 1 mM, and the cells were cultured at 37° C. and 5% CO2 for 24 hours. Afterward, total RNA was extracted from the culture, cDNA was synthesized, and real-time qPCR was performed using the IDE primers in Table 5 below to measure the expression level of IDE. Meanwhile, a group to which no peptide was added was used as a control group.

Another assay has as its system SH-SY5Y. The assay is described as follows: Neurite growth in SH-SY5Y cells (microscope, length). The following applies: peptide 0.01, 0.1, or 1 mM, 24 hours. Here is the method: In the present example, to confirm the regeneration of neurons by treatment with the peptides, the growth of neurites was confirmed. Specifically, the prepared peptides were added to SH-SY5Y, a human neural cell line, at a concentration of 0.01, 0.1, or 1 mM, and the cells were cultured for 24 hours. Afterward, the grown neurites were confirmed through a microscope, and their length was measured and evaluated.

The next assay deals with ADAM 10. The assay is described as follows: ADAM 10 expression by real-time qPCR in SH-SY5Y cells. The following applies: peptide 0.001, 0.01, 0.1, or 1 mM, 24 hours, vs control group without peptide. Here is the method: ADAM 10 is an alpha-secretase that cleaves APP into a non-toxic fragment and inhibits the production of beta-amyloid (β-amyloid, Ab1-42, 1-40). Therefore, the increased expression of ADAM 10 may be used as an indicator of a therapeutic effect on a neurodegenerative disease. Specifically, the prepared peptides were added to SH-SY5Y, a human neural cell line, at a concentration of 0.001, 0.01, 0.1, or 1 mM, and the cells were cultured at 37° C. and 5% CO2 for 24 hours. Afterwards, total RNA was extracted from the culture, cDNA was synthesized, and real-time qPCR was performed using the ADAM 10 primers shown in Table 3 below to measure the expression level of ADAM 10. Meanwhile, a group to which no peptide was added was used as a control group.

A further assay concerns ADAM 17 protein. Description: ADAM 17 protein expression by Western blotting in SH-SY5Y cells. The following applies: peptide 0.001, 0.01, 0.1, or 1 mM, 24 hours, vs control group without peptide. As to the method:
as §2

The subject of a further assay is sAPPa. Description: sAPPa expression by Western blotting in SH-SY5Y cells. The following applies: peptide 0.001, 0.01, 0.1, or 1 mM, 24 hours, vs control group without peptide. As to the method: as §2
On the technique in general: Immunoblotting shows a protein as a band on a membrane.

For GRILGFSPFR [Peptide-12], in [1], the “expression of APP” value is recorded as “inhibited”. Also, the “expression of ADAM 17 (gene, qPCR)” value in the assay on ADAM 17 is “increased”. In the assay with IL-10, the “expression of IL-10” value is “increased”. Moreover, the “expression of BDNF” value in assay [2] was “increased; also recorded: more significant”.
On to GRPPGFSLAR [Peptide-11], for which the “expression of APP” value in assay [1] is on record as “inhibited”. The “expression of ADAM 17 (gene, qPCR)” value in the assay with ADAM 17 is listed as “increased”. In addition, the “expression of IL-10” value in the assay on IL-10 is listed as “increased”. Moreover, the “expression of BDNF” value in [2] is recorded as “increased; also recorded: more significant”.
As for IKLLSIVAWAKKKI [Peptide-2], the “expression of IDE” value in [3] is “increased”. Moreover, in the assay on SH-SY5Y, the “length of the neurites” value is recorded as “increased”.
As for INIKVLIAKKIL [Peptide-4], the “expression of APP” value in assay [1] is on record as “inhibited”. In the assay on ADAM 10, the “expression of ADAM 10” value is on record as “increased”. Also, the “expression of ADAM 17 (gene, qPCR)” value in the assay on ADAM 17 was “increased”. In the assay on ADAM 17 protein, the “expression of ADAM 17 protein (Western blotting)” value (shortened to “expression of ADAM 17 protein”) is “increased”. Besides, the “expression of sAPPa (Western blotting)” value in the assay on sAPPa is “increased”. Moreover, the “expression of IDE” value in assay [3] is given as “increased”. Further, the “expression of IL-10” value in the assay with IL-10 is recorded as “increased”.
In the case of INLKALAAKIKIL [Peptide-3], the “expression of ADAM 10” value with ADAM 10 was “increased”. Besides, in [3], the “expression of IDE” value is “increased”. Besides, the “expression of IL-10” value in the assay with IL-10 is recorded as “increased”.
On to INLLKIAGKIINIL [Peptide-9], for which the “expression of ADAM 17 (gene, qPCR)” value in the assay on ADAM 17 was “increased”. In addition, in the assay with IL-10, the “expression of IL-10” value is listed as “increased; also recorded: more significant”. Moreover, in assay [2], the “expression of BDNF” value is “increased”.
Regarding INLLKSEGKIIKSL [Peptide-10], in the assay with ADAM 17, the “expression of ADAM 17 (gene, qPCR)” value was “increased”. The “expression of BDNF” value in assay [2] is given as “increased”.
Consider KALAALAKK [Peptide-8], for which, in assay [1], the “expression of APP” value is given as “inhibited”. In addition, the “expression of ADAM 10” value in the assay on ADAM 10 is reported as “increased”. For the same sequence, the “expression of IDE” value in assay [3] is reported as “increased”.
Regarding KALAALAKKIL [Peptide-7], in assay [1], the “expression of APP” value is on record as “inhibited”. Moreover, the “expression of ADAM 10” value with ADAM 10 is “increased”. For the same sequence, the “expression of ADAM 17 protein” value in the assay with ADAM 17 protein was “increased”. The “expression of sAPPa (Western blotting)” value in the assay on sAPPa is “increased”. Also, the “expression of IDE” value in [3] is on record as “increased”. Moreover, the “expression of IL-10” value in the assay on IL-10 is given as “increased”.
Take LKLKALAALIKKIL [Peptide-1]: the “expression of APP” value in [1] is “inhibited”. Also, in the assay with ADAM 17, the “expression of ADAM 17 (gene, qPCR)” value is “increased”. For the same sequence, the “expression of ADAM 17 protein” value with ADAM 17 protein was “increased”. The “expression of sAPPa (Western blotting)” value in the assay with sAPPa was “increased”. The “expression of IDE” value in assay [3] was “increased”. Moreover, the “expression of IL-10” value in the assay with IL-10 was “increased”. The “length of the neurites” value with SH-SY5Y is “increased”.
With LNIRGLGAKKKI [Peptide-5], the “expression of APP” value in assay [1] was “inhibited”. Moreover, the “expression of ADAM 10” value with ADAM 10 is given as “increased”. Besides, in assay [3], the “expression of IDE” value is recorded as “increased”. Also, in the assay on IL-10, the “expression of IL-10” value is reported as “increased”.
For the sequence LNLRGLAKKKL [Peptide-6], the “expression of IDE” value in assay [3] was “increased”. Also, in the assay with SH-SY5Y, the “length of the neurites” value was “increased”.
